From patent US5051406A, “Pharmaceutical composition using albumin as a carrier and process for producing the same” (Nippon Hypox Laboratories Incorporated, priority 1987, dated 1991)

What was measured:
Type in all cases: in vivo, male rats of Wistar strain
[1] = Absorption of nalidixic acid-albumin composition by gastrointestinal tract (oral, rat serum level)
Protocol: It was made clear from the following test that the nalidixic acid-albumin composition (nalidixic acid content: 8.9%) obtained according to the present invention improves the absorption of nalidixic acid administered after meals.
Male rats of Wistar strain each weighing about 290 g obtained from Sankyo Labo. were used under a satiety condition.
The administration amount was 50 mg/kg in terms of nalidixic acid. A composition was administered in a form of its suspension in 1 ml of water, using an oral sonde. About 0.2 ml of blood was drawn from the eyeground of rat using a capillary (Drummond, 0.1 ml) and then centrifuged to obtain a serum.
The serum was mixed with an equal volume of methanol to deproteinize the serum. The determination for the deproteinized serum was conducted according to high performance liquid chromatography.
Column: ODS-80TM manufactured by TOYO SODA, 4.6 mm×15 cm
Mobile phase: Acetonitrile: 50 mM citric acid solution: 1 M ammonium acetate =35 : 64 : 1
Detection wavelength: 258 nm
Column temperature: Room temperature
The calibration curve was obtained by adding known nalidixic acid to a blank serum and subjecting the mixture to the same procedure as for the sample.

[2] = test system: carragheenin induced plantar edema; assay: Anti-inflammatory action, carragheenin induced plantar edema method; settings: rat, oral, 5 mg/kg in terms of Indometacin
Protocol: The anti-inflammatory action of the Indometacin-albumin composition can also be proven by the following test by carragheenin induced plantar edema method.
A wide-mouthed glass container filled with water was placed on an electronic even balance. Into the water was immersed the sole of the right hind leg of rat up to the borders of the hair, and the resulting weight increase was measured to obtain a volume of the sole.
Three groups of male rats of Wistar strain each weighing 150-180 g (one group consisted of 6 such rats) were fasted for 18 hours and then measured for their sole volumes. These volumes were each taken as a sole volume before administration.
As test samples, there were used two suspensions, i.e. a suspension obtained by suspending the Indometacin-egg albumin composition (Indometacin 3 g / egg albumin 30 g) obtained in Example 24 (described later) in 1% CMCNa in an amount of about 5 mg/kg in terms of Indometacin and a suspension obtained by suspending an Indometacin powder in 1% CMCNa in an amount of 5 mg/kg in terms of Indometacin. These suspensions were orally administered to two sample groups at a proportion of 0.5 ml/100 g (rat). At 30 minutes after the oral administration, 0.1 ml of a physiological saline solution containing 1% of λ-carragheenin was subcutaneously administered to each rat at the sole of right hind leg and, immediately, 5 ml of water was administered orally. In 1, 3 and 5 hours after the administration of the 1% λ-carragheenin solution, the sole volume of each rat was measured. Then, the swelling percent of each individual rat, the average swelling percent of each group and the corresponding inhibition ratio were calculated according to the following formulae.
As a control sample, there was used 1% CMCNa, and it was orally administered to one control group at a proportion of 0.5 ml/100 g (rat). The results were compared with those of the sample-administered groups.
Swelling percent (%)=((B-A).div.A)×100
Inhibition ratio (%)=((C-D).div.C)×100
A: Sole volume before administration
B: Sole volume after administration
C: Average swelling percent of control group
D: Average swelling percent of sample group

[3] = test system: stomach mucous membrane (ulcer); assay: Formation of stomach ulcer by Indometacin-albumin composition; settings: rat, fasted, oral, 20 mg/kg in terms of Indometacin, 7 hours
Protocol: It is known that while non-steroidal anti-inflammatory agents show a strong anti-inflammatory action to inflammation-affected parts, they cause hemorrhage and ulcer to the digestive system.
The test was conducted according to the method by Okabe et al. (J. Jap. Pharmacol. Vol. 29, 670 (1979)). That is, two groups of male rats of Wistar strain each weighing 180-200 g (one group consisted of 8 such rats) were fasted for about 18 hours. As test samples, there were used suspensions obtained by suspending the Indometacin-albumin composition (Indometacin 3 g albumin 30 g) obtained in Example 23 or 24 (described later) in a 1% carboxymethyl cellulose sodium solution (hereinafter referred to as 1% CMCNa) in an amount of 20 mg/kg in terms of Indometacin. These suspensions were orally administered to the rats at a proportion of 0.5 ml/100 g (rat). As a control sample, a suspension obtained by suspending an Indometacin powder in 1% CMCNa in an amount of 20 mg/kg was administered similarly. After 7 hours from the administration, all the rats were sacrificed under etherization. 8 ml of a 1% aqueous buffered formalin solution was injected into the stomach of each rat. […] Thereafter, the stomach was incised along the greater curvature and the lesioned portions (ulcer portions) generated in the mucous membrane were measured for their major axes (mm) under a stereoscopic microscope. […]

Row | Structure (SMILES) | AUC at 8 h ([1]; 50 mg/kg in terms of nalidixic acid, 0-8 hours, read-out: area below the blood concentration-time curve (AUC) between 0 and 8 hours) | Tmax ([1]; 50 mg/kg in terms of nalidixic acid, satiety condition, read-out: time at which blood concentration of nalidixic acid reached the maximum) | Cmax ([1]; same amount (50 mg/kg), satiety condition, read-out: maximum blood concentration of nalidixic acid (powder, unit printed as μg)) | Swelling percent, 1 hr ([2]; 1 hr after λ-carragheenin) | Swelling percent, 3 hr ([2]; 3 hr after λ-carragheenin) | Swelling percent, 5 hr ([2]; 5 hr after λ-carragheenin) | Inhibition ratio, 1 hr ([2]; vs 1% CMCNa control, 1 hr after λ-carragheenin) | Inhibition ratio, 3 hr ([2]; vs 1% CMCNa control, 3 hr after λ-carragheenin) | Inhibition ratio, 5 hr ([2]; vs 1% CMCNa control, 5 hr after λ-carragheenin) | Incidence [3] | Ulcer index (Mean ± S.E.) ([3]; total of major axes (mm) of ulcers)
1 | CCn1cc(C(=O)O)c(=O)c2ccc(C)nc21 [nalidixic acid powder, nalidixic acid] | 34600 ng·h/mL | 3 h | ~7000 ng/mL | – | – | – | – | – | – | – | –
2 | COc1ccc2c(c1)c(CC(=O)O)c(C)n2C(=O)c1ccc(Cl)cc1 [Indometacin powder, Indometacin] | – | – | – | 10.3% | 8.4% | 8.5% | 39.4% | 52.5% | 60.5% | 100.0% | 341.7 ± 49.9
